Experimental findings from paper PMC12267471, “Discovery of natural scaffolds as HER2 inhibitors for breast cancer: virtual screening, molecular dynamics, and biological characterization with selectivity profiling” (Scientific Reports, 2025) are described below.

The structures appear in SMILES notation.

The target in one experiment is T1, HER2 kinase (Homo sapiens, UniProt P04626).
T1 construct: HER2 purified kinase domain (amino acids 676–1255); purchased Thermo Fischer Scientific PV3590
The experiment in a line: Z'-LYTE Kinase Assay-Tyr6 Peptide biochemical HER2 kinase assay. Conditions: cell-free Z'-LYTE, Tyr6 peptide substrate; read-out: IC50, inhibition of ATP-induced HER2 phosphorylation. The source says: The Z’-LYTE™ Kinase Assay-Tyr6 Peptide kit (Thermo Fischer Scientific™, Madison, WI, USA) was employed to evaluate the potential of selected natural products to suppress the catalytic activity of HER2 kinase. The assay adopts a Fluorescence Resonance Energy Transfer (FRET) based method in a cell-free coupled-enzyme format with no use of antibodies. The assay method mainly relies on the difference in sensitivity of phosphorylated and non-phosphorylated peptides to proteolytic cleavage. This method is a ratio metric method that calculates the Emission Ratio of donor emission divided by acceptor emission after excitation of the donor fluorophore at 400 nm. In this assay, 20 µL/well reactions containing kinase buffer, 200 µM ATP, 4µM Z’-LYTE Tyr6 Peptide substrate, 2500 ng/mL HER2 kinase, and drugs of interest functioning as inhibitors were set up in 96-well plates. Each well received 10 µL of site-specific protease development solution after one hour of room temperature incubation. The incubation continued for a full hour. Following process termination, the kinase inhibitory activity and/or peptide substrate cleavage status were assessed using a plate reader (BioTek FLx800™) to measure the ratio of fluorescence signal at 445 nm (coumarin)/520 nm (fluorescein).
The IC50 value for each natural product was computed using XLfit® 4.1 software (ID Business Solutions Inc. (IDBS), Emeryville CA), applying non-linear regression of log concentration against the percentage of HER2 inhibition.
Utilizing the Z’-LYTE™ Kinase Assay-Tyr6 Peptide kit as a cell-free system for evaluating the inhibitory activity of HER2, the five natural products were evaluated for their capacity to inhibit HER2 phosphorylation. Since its kinase catalysis is necessary for all HER2-mediated activities, we attempted at this initial stage to validate the HER2 inhibitory ability of the five in silico hits directly on the HER2 purified kinase domain (amino acids 676–1255), that was in vitro phosphorylated to attain the maximum level of intrinsic kinase activity. In this assay, the substrate was Z’-LYTE™ Tyr6 peptide; thus, the changes in its phosphorylation can directly correlate with the HER2 kinase activity. In the meantime, tyrphostin AG 1478 was used as a positive control to ensure the validity of the assay. Lapatinib (Tykerb®) was included as a second positive control to benchmark virtual hits’ performance against clinically approved standards.

The test system of experiment [1] is BT-474 cells. The experiment in a line: MTT proliferation assay, BT-474. In kind it is cell-based, human. Conditions: Homo sapiens.
Experiment [2] deals with SKBR3 cells. The experiment in a line: MTT proliferation assay, SKBR3. It counts as cell-based, human. As to conditions: Homo sapiens, SK-BR-3. A general note: Tetrazolium dyes change colour on reduction, which living cells bring about.
The test system of experiment [3] is BT-474 cells. The experiment in a line: Wound healing assay, BT-474. In kind it is cell-based. Conditions: Homo sapiens. How it is done:
(§1) In a sterile flat-bottom 24-well plate, SKBR3 and BT-474 breast cancer cells were plated at a density of 1 × 10^5 cells/well. […] Wounds were then inflicted across each cell monolayer using a sterile 200 µL pipette tip. Media was aspirated, and cells were washed twice with PBS to remove floating cells and cell debris. Fresh serum-free media was placed up against the well wall to cover the bottom of the well and prevent further cell detachment. Incubation of cells was resumed for five hours at 37 °C in a humidified CO2 incubator. Subsequently, the media were substituted with fresh ones containing various doses of liquiritin, oroxin B, or DMSO as a vehicle control (3 replicates/group) along with EGF (100 ng/mL) as a scattering factor. Wound closure was microscopically monitored in vehicle-treated control wells, and the time frame for wound closure was determined to be 72 h. Before the closure of wounds in the vehicle-treated control wells, the media were removed, cells were washed with PBS and completely fixed using cold methanol for 20 min at 4 °C. An inverted VistaVision microscope was used to take pictures of the wounds monitored at zero and 72 h with a VistaVision Still camera (VWR, Radnor, PA).
(§2) Results were expressed as a percentage of cell migration according to the following Equation[16]: [drawing 2]
(§3) Where Tt is the wound thickness in treatment wells, TDMSO is the thickness of the wound in control wells treated by DMSO, and Tº is the thickness of the wound at zero time. Wound thickness was calculated in three or more randomly selected fields per treatment group.

Experiment [4] concerns SKBR3 cells. The experiment is described as follows: Wound healing assay, SKBR3. In kind it is cell-based. As to conditions: Homo sapiens, SK-BR-3. How it is done: as §1, §2, §3
Experiment [5] has as its system SKBR3 cells. The experiment is described as follows: Transwell cell migration assay, SKBR3. It counts as cell-based, human. Conditions: SKBR3, 6.4 µM, 24 h. As to the method:
The in vitro transwell migration assay was conducted using an HTS-96 transwell permeable support chamber with 8 μm pores (Corning, USA) equipped with polyvinylpyrrolidone-free polycarbonate (PVPF) filters. […] The plate was incubated for 24 h at 37 °C. Then, the transwell inserts were incubated in the receiver plate with Calcein AM/cell dissociation solution at 37 °C in 5% CO2 incubator for 1 h, followed by measuring the fluorescence using a fluorescence plate reader with 485 nm excitation and 520 nm emission filter package. The relative fluorescence units were converted to cell count using a standard curve. The number of cells that moved to the lower side of the filter was used to assess migratory characteristics. The experiment in both cell lines was conducted in triplicate and data are presented as the mean ± SD.

In the next experiment the test system is caspase 3. The experiment in a line: Real-time PCR caspase gene expression in BT-474 cells. In kind it is cell-based, human. As to conditions: BT-474, liquiritin at its IC50. How it is done:
(§4) RNA extraction was performed using Qiagen total RNA extraction kit from seeded BT-474 cells untreated and treated with liquiritin at a concentration equivalent to its respective IC50 value (determined via prior proliferation assays) according to the manufacturer’s manual. NanoDrop Lite Plus spectrophotometer™ (ThermoScientific, USA) was used for quantitation and purity evaluation of the extracted total RNA. cDNA synthesis and real-time quantitative PCR were performed in one reaction tube using iScript™ One-Step RT-PCR Kit with SYBR® Green (Bio-Rad, USA) using primers listed in Table S2 per the instruction’s manual. The relative gene expression of caspases 3, 8, and 9 was analyzed using the 2^−ΔΔCT method along with untreated BT-474 cells as control and Glyceraldehyde-3-phosphate dehydrogenase (GAPDH) as a housekeeping gene. The data were expressed as fold change in gene expression.
(In qPCR the cycle at which signal appears reflects the starting amount.)

The next experiment deals with caspase 8. The experiment is described as above. It counts as cell-based, human. Conditions: BT-474, liquiritin at its IC50. How it is done:
as §4

For the next experiment, the system named is caspase 9. The experiment is described as above. Conditions: BT-474, liquiritin at its IC50. In kind it is cell-based, human. As to the method: as §4

T1 sequence (P04626 676-1255): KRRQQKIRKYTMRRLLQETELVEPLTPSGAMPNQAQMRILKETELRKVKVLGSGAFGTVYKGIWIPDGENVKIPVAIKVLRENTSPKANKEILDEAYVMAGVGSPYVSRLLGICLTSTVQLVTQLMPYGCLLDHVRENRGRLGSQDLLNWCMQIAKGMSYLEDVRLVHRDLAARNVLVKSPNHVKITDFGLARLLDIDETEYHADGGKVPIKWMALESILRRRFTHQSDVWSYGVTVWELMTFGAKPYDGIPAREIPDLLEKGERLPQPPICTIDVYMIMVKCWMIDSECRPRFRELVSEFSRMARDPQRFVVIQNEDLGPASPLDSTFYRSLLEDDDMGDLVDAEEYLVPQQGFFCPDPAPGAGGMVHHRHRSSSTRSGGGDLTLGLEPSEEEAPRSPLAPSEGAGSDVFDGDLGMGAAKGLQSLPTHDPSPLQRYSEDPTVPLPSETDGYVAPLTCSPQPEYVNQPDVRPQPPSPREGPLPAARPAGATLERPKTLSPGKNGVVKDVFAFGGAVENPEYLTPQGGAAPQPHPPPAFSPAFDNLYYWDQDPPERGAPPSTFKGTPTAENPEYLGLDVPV

For the molecule `O=C1C[C@@H](c2ccc(O[C@@H]3O[C@H](CO)[C@@H](O)[C@H](O)[C@H]3O)cc2)Oc2cc(O)ccc21` [Liquiritin], the IC50 was found to be 0.0185 µM on HER2 kinase; 3.5 µM in the experiment with BT-474 cells [1] (BT-474, MTT, 48 h (Table S8), read-out: Cell growth inhibition IC50); 3.5 ± 0.1 µM with BT-474 cells [1] (BT-474, Table S9, read-out: IC50); 6.4 µM with SKBR3 cells [2] (SKBR3, MTT, 48 h (Table S8), read-out: Cell growth inhibition IC50); 6.4 ± 0.2 µM with SKBR3 cells [2] (SKBR3, Table S9, read-out: IC50); 10.4 µM in the experiment on BT-474 cells [3] (BT-474, wound healing, read-out: IC50, cell migration). Moreover, in the experiment with SKBR3 cells [4] (SKBR3, wound healing, read-out: IC50, cell migration), the IC50 is 16.9 µM. Besides, the inhibition at 2 µM in the experiment on BT-474 cells [3] (BT-474, 2 µM, 72 h, read-out: inhibition of cell migration) was found to be 20%. The inhibition at 3 µM in the experiment on BT-474 cells [3] (BT-474, 3 µM, 72 h, read-out: inhibition of cell migration) came out at 25.6%; with SKBR3 cells [4] (SKBR3, 3 µM, 72 h, read-out: inhibition of cell migration) it was 22.1%. Further, the inhibition at 5 µM in the experiment with BT-474 cells [3] (BT-474, 5 µM, 72 h, read-out: inhibition of cell migration) amounted to 31.2%. Further, the inhibition at 10 µM in the experiment on BT-474 cells [3] (BT-474, 10 µM, 72 h, read-out: inhibition of cell migration) was determined as 50.6%; in the experiment with SKBR3 cells [4] (SKBR3, 10 µM, 72 h, read-out: inhibition of cell migration), 38.2%. The inhibition at 6 µM in the experiment on SKBR3 cells [4] (SKBR3, 6 µM, 72 h, read-out: inhibition of cell migration) came to 32.8%. The inhibition at 20 µM with SKBR3 cells [4] (SKBR3, 20 µM, 72 h, read-out: inhibition of cell migration) was found to be 54.1%. Moreover, in the experiment with SKBR3 cells [5], the reduction in migration result was “approximately 23%”. Further, the “caspase 3 expression, fold change vs untreated cells” value in the experiment with caspase 3 is “approximately 10.8 fold”. The “caspase-8 expression, fold increase” value with caspase 8 is listed as 2.6 fold. In addition, in the experiment on caspase 9, the “caspase 9 expression, fold change vs untreated cells” value was around 8.1 fold.
